Data published in article PMC7560154, “Novel Antimicrobial Peptide from Temporin L in The Treatment of Staphylococcus pseudintermedius and Malassezia pachydermatis in Polymicrobial Inter-Kingdom Infection” (Antibiotics, 2020).
Values after ≈ are worked out from the molar mass of the structure shown. Where a SMILES comes first, the peptide text is derived from it. [ ]: non-standard residue; d: D form.

Experiments:
M. pachydermatis [1] = test: Resistance acquisition test (serial subculture with sublethal peptide 8); assay type: cell-based, Malassezia pachydermatis
Procedure: To evaluate if the yeast acquired resistance to the drug, after a continued treatment, M. pachydermatis was subcultured with a sub lethal concentration of peptide 8 (1/2 MIC). Briefly, a final 3.12 μM peptide 8 concentration was added to yeast inoculum suspension equivalent to 1–3 × 10^6 CFU/mL in Sabouraud dextrose broth (SB) and incubated 72 h at 30 °C (inoculum 1). After this period, optical density was measured and a new yeast subculture with 3.12 μM of peptide 8 was prepared starting from inoculum 1 (inoculum 2). Three days after, optical density was again recorded and a new inoculum in presence of peptide 8 prepared. This was repeated until evident yeast death was observed.

MRSP mature biofilm [2] = test: Mature biofilm metabolic activity, XTT assay, MRSP; assay type: cell-based, Staphylococcus pseudintermedius; details: 24 h
Procedure: The metabolic activity of MSSP and MRSP mature biofilms was quantified by the XTT [2,3-bis(2-methyloxy-4-nitro-5-sulfophenyl)-2H-tetrazolium-5-carboxanilide] (Roche Diagnostics, Germany) reduction assay. The assay was conducted as previously described with some modifications. XTT (150 µL) was added to biofilms in each well and the plates were incubated for 40 min at 37 °C in the dark. The reduction of the tetrazolium salt by cellular dehydrogenase into orange formazan dye was photometrically measured at 490 nm. The medium was set as negative control. Viability values for each well were compared to controls.

MSSP mature biofilm = test: Mature biofilm biomass, crystal violet assay, MSSP; assay type: cell-based, Staphylococcus pseudintermedius; details: MSSP one-day-old biofilm, up to 25 μM, 24 h
Procedure: (§1) Biofilms were allowed to form in each well of a 96-well microtiter plate, as described by Stepanovic. After 24 h, planktonic cells were aspirated, and the plates were washed with 200 μL of PBS. Cells biofilms were exposed to 200 μL of peptide 8 at the final concentration ranging from 6.25 to 25 μM and the plate was further incubated for 24 h at 37 °C. Positive controls were non-treated cells incubated with 200 μL of medium broth. At the end of the experiment crystal violet-staining was performed to assess biofilm mass.

[3] = in vivo model of acute inflammation; cited from earlier work
M. pachydermatis [4] = tested on: M. pachydermatis
Procedure: (§2) MIC of all compounds was determined in Sabouraud Dextrose broth with 1% tween 80 (SB) medium, for M. pachydermatis, and Mueller–Hinton broth (MH), for S. pseudintermedius, by the broth microdilution assay (BMD) in 96-well microtiter plates, as previously reported. Specifically, SB containing 1% Tween 80 was used instead of RPMI 1640 medium. All compounds were dissolved in ethanol and ketoconazole in dimethyl sulfoxide (DMSO). The solutions were serially diluted in SB and MH two-fold from 0.19 to 50 μM. M. pachydermatis suspension was prepared from 3-day-old colonies grown on Sabouraud agar at 30 °C. The final concentration of the yeast inoculum suspensions was equivalent to 1–3 × 10^3 CFU/mL. Bacterial suspensions were diluted to yield an optical density (OD) around 0.5 at 595 nm and further diluted to a final concentration of 1 × 10^6 CFU/mL. The compounds were added to the microbial suspension in each well yielding a final cell concentration of 5 × 10^5 CFU/mL. Positive controls included oxacillin 5 μM (2 μg/mL) and vancomycin 1.4 μM (2 μg/mL) for S. pseudintermedius or ketoconazole 0.2 μM (0.125 μg/mL) for M. pachydermatis. Negative control wells were set to contain bacteria in MH or yeasts in SB plus the amount of ethanol used to dilute each compound. Medium turbidity was measured by a microtiter plate reader (Tecan, Milan, Italy) at 595 nm after 24 h for S. pseudintermedius and 48 h for M. pachydermatis. Absorbance was proportional to microbial growth. The MIC was defined as the lowest concentration of drug that caused a prominent decrease (≥90% inhibition) in visible growth relative to that of the growth control.

MRSP mature biofilm [5] = test: Mature biofilm biomass, crystal violet assay, MRSP; assay type: cell-based, Staphylococcus pseudintermedius; details: MRSP one-day-old biofilm, up to 25 μM, 24 h
Procedure: as §1

MRSP mature biofilm [6] = test: Confocal laser scanning microscopy of mature biofilm (LIVE/DEAD); assay type: cell-based, Staphylococcus pseudintermedius; details: MRSP 1-day-old biofilm, 24 h; 12.5 μM in method, 32 μg/mL in Figure 4 legend
Procedure: CLSM was used to confirm the effect of peptide 8 on mature biofilm respect the controls. MSRP were grown in chambered cover glass (μ Slide 4 well; ibidi GmbH, Germany) in a static condition for 24 h. Peptide 8 was added on a 1-day-old biofilm at 12.5 μM. Bacterial suspensions incubated with medium alone were used as a positive control. After 24 h, biofilms were rinsed with PBS and stained by using a LIVE/DEAD® BacLight Bacteria Viability stains (Life Technologies, Italy). After the staining, the images were observed using a LSM 700 inverted confocal laser-scanning microscope (Zeiss, Italy). The areas were scanned using a 10X objective lens with the signal recorded in the green channel for Syto9 (excitation 488 nm, emission 500–525 nm) and in red channel for PI (excitation 500–550 nm, emission 610–650 nm).

human keratinocytes = details: at MICs; cited from earlier work
Text: Azole drugs represent the first choice to treat Malassezia-related infections. It is well known that routine antifungal administration may induce acquired resistance. Peptide 8 was further investigated to verify if prolonged treatment might induce resistance in the yeast. […] Thus, a prolonged application of peptide 8 can be resolutive for yeast infection, without causing drug-resistance. By considering the good results obtained until here, we were prompted to inves ...

[7] = tested on: methicillin-susceptible S. pseudintermedius (MSSP); test: microbe, parasite or virus in culture; assay type: cell-based, Staphylococcus pseudintermedius
Procedure: as §2

[8] = tested on: methicillin-resistant S. pseudintermedius (MRSP); test: microbe, parasite or virus in culture; assay type: cell-based, Staphylococcus pseudintermedius
Procedure: as §2

CC[C@H](C)[C@H](NC(=O)[C@H](CCCNC(=N)N)NC(=O)[C@@H](CCCCN)NC(=O)[C@@H](CC(C)C)NC(=O)[C@H](Cc1ccccc1)NC(=O)[C@H](CCCCN)NC(=O)[C@H](CO)NC(=O)[C@H](Cc1ccccc1)NC(=O)[C@H](Cc1c[nH]c2ccccc12)NC(=O)[C@@H]1CCCN1C(=O)[C@@H](NC(=O)[C@@H](N)Cc1ccccc1)C(C)C)C(=O)N[C@@H](CC(C)C)C(N)=O [Peptide 8] (H-FVPWFSKF[dL][dK]RIL-NH2; N-terminus assumed)
Log10 CFU/Ml After 15 Generation Subcultures Including TL48 (M. pachydermatis [1]; 3.12 μM (1/2 MIC), 15 subcultures (about 2 months), three independent experiments in triplicate): 2.10 ± 0.12 Log10 CFU/Ml
Log10 CFU/Ml After 1 Generation Subculture Including TL48 (M. pachydermatis [1]; 3.12 μM (1/2 MIC), Sabouraud dextrose broth, 72 h at 30 °C per subculture, three independent experiments in triplicate): 5.80 ± 0.25 Log10 CFU/Ml
Acquisition of resistance after prolonged treatment (M. pachydermatis [1]; 2 months of repeated sublethal concentration treatment): did not acquire resistance
Reduction of biofilm viability (MRSP mature biofilm [2]; 6.25 μM): 38%
Reduction of biofilm viability (MRSP mature biofilm [2]; 12.5 μM): 52%
Effect on biofilm viability at 25 μM (MRSP mature biofilm [2]; 25 μM): reduced effect
Effect on mature biofilm biomass (MSSP mature biofilm): did not affect the biomass
Anti-inflammatory activity [3]: potent anti-inflammatory activity
MMC/MIC Ratio (M. pachydermatis [4]; M. pachydermatis): 1
MMC Values (minimum mycocidal concentration) (M. pachydermatis [4]; ≥3 log10 reduction in colony count from starting inoculum, agar 72 h at 30 °C): 6.25 µM
Effect on mature biofilm biomass (MRSP mature biofilm [5]): did not affect the biomass
Effect on cells within mature biofilm (LIVE/DEAD staining) (MRSP mature biofilm [6]): killed or damaged
Cytotoxicity (human keratinocytes): low cytotoxicity
MBC ([7]; 24 h): 3.12 µM (≈ 5.24 µg/mL)
MIC ([7]; 24 h, read-out: MIC): 1.56 µM (≈ 2.62 µg/mL)
MBC/MIC Ratio ([7]; MSSP): 2
MBC ([8]; 24 h): 12.5 µM (≈ 21 µg/mL)
MIC ([8]; 24 h, read-out: MIC): 6.25 µM (≈ 10.5 µg/mL)
MBC/MIC Ratio ([8]; MRSP): 2
